Results taken from patent US10925921B2, “Fermented Pennisetum extract” (Sagittarius Life Science Corp., priority 2016, dated 2021).

Assays:
Format in all cases: in vivo, BALB/c nu/nu mice
[1] = system: human lung adenocarcinoma cell line, NCl-H441; test: Tumor growth assay in orthotopic lung model, IVIS bioluminescence; conditions: docetaxel 2.5 mg/kg, from the fourth week
Protocol: FIGS. 3(A) and (B) show the inhibitory effect of PPE on tumor growth of orthotropic lung tumor-bearing BALB/c nude mice. H441-luc were orthotopically injected into the lung of mice at a concentration of 0.8×10^6 cells/70 μL PBS. PPE treatments (three dosages 25, 50, and […].) twice a week by intraperitoneal injection into tumor-bearing animals over a period of 4 weeks. (A) Representative non-invasive bioluminescence images show tumor progression of mice in orthtopic model. (B) Bar graphs were quantified by Living Image analysis software (n=8-10). Data were analyzed by Student's t-test and are shown as mean±SD*P<0.05 compared with control. § P<0.05 compared with week 4 tumor group;
Male BALB/c nu/nu mice were used in the orthotopic model and divided into five groups, control group (5 mice), tumor group (10 mice), three experimental groups (25-PPE, 50-PPE and 100-PPE) (each group for 10 mice) and docetaxel group (8 mice). […]
The mice were injected with the cell solution of human lung adenocarcinoma cell line, NCl-H441, in matrigel (0.8×10^6 cells/70 μL/mice). […] The tumor growth was monitored by Non Invasion In Vivo Imaging System (IVIS).

[2] = system: human lung adenocarcinoma cell line, NCl-H441; test: Survival (Kaplan-Meier) in orthotopic lung tumor-bearing mice; conditions: docetaxel 2.5 mg/kg b.w., orthotopic model
Protocol: Male BALB/c nu/nu mice were used in the orthotopic model and divided into five groups, control group (5 mice), tumor group (10 mice), three experimental groups (25-PPE, 50-PPE and 100-PPE) (each group for 10 mice) and docetaxel group (8 mice). The mice of the control group and the tumor group were subjected to intraperitoneal injection (i.p.) with vehicle, while 10 mice of each of the experimental groups, 25-PPE group (25 mg/kg of PPE), 50-PPE group (50 mg/kg of PPE) and 100-PPE group (100 mg/kg of PPE), were i.p. administered with 25 mg/kg of PPE, 50 mg/kg of PPE and 100 mg/kg of PPE obtained in Example 1, respectively, and 8 mice of the docetaxel group were administered with 2.5 mg/kg of docetaxel.
The mice were injected with the cell solution of human lung adenocarcinoma cell line, NCl-H441, in matrigel (0.8×10^6 cells/70 μL/mice). Three days after injections, the PPEs at the above-mentioned doses were i.p. administered to the mice twice every two weeks. The tumor growth was monitored by Non Invasion In Vivo Imaging System (IVIS).

[3] = system: human lung adenocarcinoma cell line, NCl-H441; test: Computed tomography (CT) lung screening assay in orthotopic model; conditions: docetaxel 2.5 mg/kg, fourth week; tumor group 11.1+/−2.8%
Source text: FIGS. 5(A) and (B) show the inhibitory effects of PPE on analysis of tumor volume in orthotopic model. (A) The micro-CT images and quantitative end-points for lung tumor growth. Longitudinal and transverse micro-CT images of tumor growth in control and treatment of PPE. Each tumor scanned by micro-CT was reconstructed to three-dimensional images (axial, sagittal, and coronal), and diameters measured periodically as indicated. Data represent presence of tumor value in each group. (B) The tissue of lung lesions in nude mice. Representative lung tumor formed in different group. Tumors observed in the lungs are indicated with a yellow arrow;
In the orthotopic model of Example 3, the mice were subjected to CT lung screening to detect the tumor size in lung at the fourth week. The tumor accounts for 11.1+/−2.8% of the lung in the tumor group, 10.1+/−3.9% in the 25-PPE group, 9.3+/−1.4% in the 50-PPE group, 7.5+/−2.3% in the 100-PPE group and 8.0+/−1.1% in the docetaxel group (see FIG. 5).

CC(=O)O[C@@]12CO[C@@H]1C[C@H](O)[C@@]1(C)C(=O)[C@H](O)C3=C(C)[C@@H](OC(=O)[C@H](O)[C@@H](NC(=O)OC(C)(C)C)c4ccccc4)C[C@@](O)([C@@H](OC(=O)c4ccccc4)[C@H]21)C3(C)C [docetaxel]
tumor bioluminescence (IVIS) [1]: 0.5+/−0.07×10^7 photons/sec
lifespan, Kaplan-Meier cumulative survival analysis [2]: significant (p<0.05) increase in lifespan
tumor share of the lung (CT tumor volume ratio) [3]: 8.0+/−1.1%
